Measurements as given in patent US11174244B2, “Isoquinolin-3-yl carboxamides and preparation and use thereof” (BioSplice Therapeutics, Inc., priority 2016, dated 2021).
Each block holds one compound with its values, some of them ahead of it.

Assays:
IL-6 = IL-6 inhibition (HTRF) in LPS-stimulated human peripheral blood mononuclear cells; type: cell-based; conditions: IL-6 in LPS-stimulated huPBMCs; for value in parentheses after >10 (% inhibition at top concentration): where EC50 >10 μM; for EC50: 22 hours, dose-response starting from 10 μM
Procedure: After 22 hour incubation, a mixture of ani-IL6XL665 and anti-IL-6 Cryptate diluted in reconstitution buffer (Catalog #62IL6PEC, Cisbio Inc., Bedford, Mass.) was added to each well. […] All samples were processed in duplicate. […] EC50 was determined using software generated by Dotmatics Limited (Windhill Bishops Stortford Herts, UK) using the Levenberg-Marquardt 4 parameter fitting procedure with finite different gradients.

Wnt activity = experiment: Screening assay for Wnt activity (Sp5-Luc reporter gene assay in SW480 cells); type: cell-based, human; conditions: 36 to 48 hours
Procedure: The screening assay for Wnt activity is described as follows.
Following incubation, 15 μl of BriteLite Plus luminescence reagent (Perkin Elmer) was added to each well of the 384-well assay plates. The plates were placed on an orbital shaker for 2 min and then luminescence was quantified using the Envision (Perkin Elmer) plate reader.

DYRK1A kinase = DYRK1A kinase (Homo sapiens (Human), UniProt Q13627); experiment: DYRK1A kinase activity assay (Ser/Thr 18 peptide Z-lyte, FRET); type: biochemical; conditions: method calls the values IC50
GSK3β kinase = GSK3β kinase (Homo sapiens (Human), UniProt P49841); experiment: GSK3β kinase activity assay (Ser/Thr 09 peptide Z-lyte, FRET); type: biochemical; conditions: method calls the values IC50
[1] = tested on: Tau phosphorylation at Ser396 (pSer396); experiment: Tau phosphorylation assay (pSer396 ELISA / western blot) in SH-SY5Y cells; type: cell-based, human; conditions: overnight (16-18 h) exposure
Procedure: Two days before treatment, cells were seeded onto 96 well plates at 5×10^4 cells/well.
Wells were visually checked for cell death or change in morphology and supernatants were tested for cytotoxicity by measurement of lactate dehydrogenase release (LDH, CytoToxOne kit, Promega) if necessary.
Cells were lysed with RIPA buffer complemented with phosphatase and protease inhibitors then lysates were spun down at 12,000 g for 10 min to remove any cellular debris. Lysates are then either directly tested for pSer396 by ELISA (Life Technology, Kit KHB7031) or loaded on NuPage Bis-Tris gels for western blot analysis. Colorimetric detection of ELISA signal is performed by Cytation3 plate reader (Biotek) and the chemiluminescence signal for HRP-linked antibodies used in western blotting is detected using a Carestream Image Station. The same pSer396 antibody is used for detection of pTau in both assays.

[2] = tested on: SW480 colon carcinoma cells; experiment: Cell viability assay (CellTiter-Glo) in SW480 cells; type: cell-based, human; conditions: four days incubation
[3] = tested on: primary human fibroblasts derived from IPF patients (LL29 cells); experiment: Fibrosis assay: αSMA staining in TGF-β1 treated LL29 fibroblasts; type: cell-based; conditions: for EC50: LL29 fibroblasts treated with TGF-β1, 4 days, αSMA, dose-response 10 μM to […]
secreted Aβ40 peptide = experiment: Secreted β-amyloid 40 (Aβ40) peptide assay in APP overexpressing SH-SY5Y-APP cells; type: cell-based; conditions: Homo sapiens, overnight (16-18 hours), supernatant
Procedure: SH-SY5Y cells were infected with lentivirus to overexpress amyloid (A4) beta precursor protein (APP), hereafter referred to as the SH-SY5Y-APP cells.
SH-SY5Y cells were seeded onto 6-well plates at 5.0×10
[formula] and incubated overnight at 37° C.
Polybrene added for permeability (H9268, Sigma). 24 hours post-transfection, the entire volume from each well was replaced with regular SH-SY5Y medium.
Puromycin-resistant cell were then expanded, harvested and banked. APP-overexpression was controlled by immunoblotting for total APP and Myc-DDK.
The cell assay procedure start 18 h prior to treatment, as SH-SY5Y-APP cells were seeded onto 96-well plates at 2.0×10^4
At this time, designated wells were seeded with SH-SY5Y cells that were seeded and treated with puromycin at 10
Cells were exposed overnight (16-18 hours) in a 37° C. incubator before supernatant was harvested. […] The original plates with seeded cells were tested for cytotoxicity by measure of adenosine triphosphate (ATP) release by adding CellTiter-Glo® diluted 1:4 in distilled water (G7573, Promega) and transferring lysed cells to a completely black 96-well plate to be read with the Cytation3. Plates containing supernatant were spun down at 1200 g for 10 minutes to remove any cellular debris. […]

GSK3β kinase, sequence (P49841 whole entry): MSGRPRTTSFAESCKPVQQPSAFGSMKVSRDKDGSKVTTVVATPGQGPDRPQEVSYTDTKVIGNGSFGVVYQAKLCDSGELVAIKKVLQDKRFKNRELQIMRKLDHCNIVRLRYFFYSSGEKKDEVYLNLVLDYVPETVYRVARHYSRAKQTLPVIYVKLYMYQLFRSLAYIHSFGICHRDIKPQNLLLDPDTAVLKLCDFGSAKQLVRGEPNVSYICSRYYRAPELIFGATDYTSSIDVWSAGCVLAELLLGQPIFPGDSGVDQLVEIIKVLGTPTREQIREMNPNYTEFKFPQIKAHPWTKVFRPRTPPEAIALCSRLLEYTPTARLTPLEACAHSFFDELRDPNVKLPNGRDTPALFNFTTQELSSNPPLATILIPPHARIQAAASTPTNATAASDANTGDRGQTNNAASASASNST

Compound: Cn1cc(-c2ccc3cnc(NC(=O)CN4C5CCC4COC5)cc3c2)cn1 [Compound 347, 2-(3-Oxa-8-azabicyclo[3.2.1]octan-8-yl)-N-(6-(1-methyl-1H-pyrazol-4-yl)isoquinolin-3-yl)acetamide]
value in parentheses after >10 (% inhibition at top concentration) (IL-6): 4.5%

Compound: Cc1nnc(-c2ccc3cnc(NC(=O)CN4C5CCC4COC5)cc3c2)s1 [Compound 962, 2-(3-Oxa-8-azabicyclo[3.2.1]octan-8-yl)-N-(6-(5-methyl-1,3,4-thiadiazol-2-yl)isoquinolin-3-yl)acetamide]
value in parentheses after >10 (% inhibition at top concentration) (IL-6): 9.6%

EC50 (Wnt activity): 3480 nM | EC50 (DYRK1A kinase): 14.3 nM | EC50 (GSK3β kinase): 80 nM | EC50 [1]: 978 nM | EC50 [2]: 3460 nM | EC50 (IL-6): 1580 nM
Compound: N-(6-(1-Methyl-1H-pyrazol-4-yl)isoquinolin-3-yl)-2-(6-azaspiro[2.5]octan-6-yl)acetamide [Compound 296]
EC50 [3]: 1960 nM

EC50 (Wnt activity): 1590 nM | EC50 (DYRK1A kinase): 12.3 nM | EC50 (GSK3β kinase): 44 nM | EC50 [1]: 346 nM | EC50 [2]: 1250 nM | EC50 (IL-6): 819 nM
Compound: N-(6-(1-Methyl-1H-pyrazol-4-yl)isoquinolin-3-yl)-2-(pyrrolidin-1-yl-2,2,5,5-d4)acetamide [Compound 315]
EC50 [3]: 1820 nM

Compound: Cn1cc(-c2ccc3cnc(NC(=O)CN4C5CCC4CC5)cc3c2)nn1 [Compound 513, 2-(7-Azabicyclo[2.2.1]heptan-7-yl)-N-(6-(1-methyl-1H-1,2,3-triazol-4-yl)isoquinolin-3-yl)acetamide]
value in parentheses after >10 (% inhibition at top concentration) (IL-6): 14.5%

Compound: Cn1cncc1-c1ccc2cnc(NC(=O)C3C(C)(C)C3(C)C)cc2c1 [Compound 269, 2,2,3,3-Tetramethyl-N-[6-(3-methylimidazol-4-yl)-3-isoquinolyl]cyclopropanecarboxamide]
IC50 (secreted Aβ40 peptide): > 10000 nM

Compound: CC(C)CN1CCC[C@@H](C(=O)Nc2cc3cc(-c4cnn5c4CN(CCF)CC5)ccc3cn2)C1 [Compound 1002, (R)—N-(6-(5-(2-Fluoroethyl)-4,5,6,7-tetrahydropyrazolo[1,5-a]pyrazin-3-yl)isoquinolin-3-yl)-1-isobutylpiperidine-3-carboxamide]
value in parentheses after >10 (% inhibition at top concentration) ([3]; LL29 fibroblasts treated with TGF-β1, where EC50 >10 μM): 27.5%

Compound: Cn1cc(-c2ccc3cnc(NC(=O)C45CCN(CC4)CC5)cc3c2)cn1 [Compound 1071, N-(6-(1-Methyl-1H-pyrazol-4-yl)isoquinolin-3-yl)quinuclidine-4-carboxamide]
value in parentheses after >10 (% inhibition at top concentration) (IL-6): 8.8%

Compound: Cc1nnc(-c2ccc3cnc(NC(=O)CN4C5CCC4CC5)cc3c2)s1 [Compound 959, 2-(7-Azabicyclo[2.2.1]heptan-7-yl)-N-(6-(5-methyl-1,3,4-thiadiazol-2-yl)isoquinolin-3-yl)acetamide]
value in parentheses after >10 (% inhibition at top concentration) (IL-6): 6.1%

Compound: Cn1cc(-c2ccc3cnc(NC(=O)C4C(C)(C)C4(C)C)cc3c2)nn1 [Compound 277, 2,2,3,3-Tetramethyl-N-(6-(1-methyl-1H-1,2,3-triazol-4-yl)isoquinolin-3-yl) cyclopropane-1-carboxamide]
value in parentheses after >10 (% inhibition at top concentration) (IL-6): 4.0%
